Calls of active or inactive are those of the source. The rule behind the calls is not given here.

The target of test [1] is Metabotropic glutamate receptor 1 (Rattus norvegicus, UniProt P23385). Briefly: Agonist activity at rat mGluR1 receptor expressed in HEK293 cells by IP-1 HTRF assay. The class given is functional, cell-based.
Test [2] deals with Metabotropic glutamate receptor 5 (Rattus norvegicus, UniProt P31424). Briefly: Agonist activity at rat mGluR5 receptor expressed in HEK293 cells by IP-1 HTRF assay. The class given is functional, cell-based. A general note: Time-resolved FRET reads energy transfer from a long-lived donor to a nearby acceptor.
Test [3] addresses Metabotropic glutamate receptor 2 (Rattus norvegicus, UniProt P31421). Briefly: Agonist activity at rat mGluR2 receptor expressed in HEK293 cells by IP-1 HTRF assay. Conditions: read-out: EC50. The class given is functional, cell-based.
Test [4] deals with Metabotropic glutamate receptor 3 (Rattus norvegicus, UniProt P31422). Briefly: Agonist activity at rat mGluR3 receptor expressed in HEK293 cells by IP-1 HTRF assay. The class given is functional, cell-based.
The target in test [5] is Metabotropic glutamate receptor 4 (Rattus norvegicus) (UniProt P31423). Briefly: Agonist activity at rat mGluR4 receptor expressed in HEK293 cells at 30 uM by IP-1 HTRF assay. It is filed as functional, cell-based.
The target in test [6] is Metabotropic glutamate receptor 6 (Rattus norvegicus, UniProt P35349). Briefly: Agonist activity at rat mGluR6 receptor expressed in HEK293 cells by IP-1 HTRF assay. The class given is functional, cell-based.
Test [7] addresses Metabotropic glutamate receptor 7 (Rattus norvegicus) (UniProt P35400). Briefly: Agonist activity at rat mGluR7 receptor expressed in HEK293 cells at 30 uM by IP-1 HTRF assay. It is filed as functional, cell-based.
Test [8] has as its target Metabotropic glutamate receptor 8 (Rattus norvegicus) (UniProt P70579). Briefly: Agonist activity at rat mGluR8 receptor expressed in HEK293 cells at 30 uM by IP-1 HTRF assay. The class given is functional, cell-based.
Test [9] deals with Metabotropic glutamate receptor 1 (Rattus norvegicus) (UniProt P23385). Briefly: Antagonist activity at rat mGluR1 receptor expressed in HEK293 cells by IP-1 HTRF assay. The class given is functional, cell-based.
For test [10], the target named is Metabotropic glutamate receptor 5 (Rattus norvegicus) (UniProt P31424). Briefly: Antagonist activity at rat mGluR5 receptor expressed in HEK293 cells by IP-1 HTRF assay. The class given is functional, cell-based.
Test [11] concerns the target Metabotropic glutamate receptor 2 (Rattus norvegicus) (UniProt P31421). Briefly: Antagonist activity at rat mGluR2 receptor expressed in HEK293 cells by IP-1 HTRF assay. The class given is functional, cell-based.
Test [12] deals with Metabotropic glutamate receptor 3 (Rattus norvegicus) (UniProt P31422). Briefly: Antagonist activity at rat mGluR3 receptor expressed in HEK293 cells by IP-1 HTRF assay. It is filed as functional, cell-based.
Test [13] deals with Metabotropic glutamate receptor 4 (Rattus norvegicus) (UniProt P31423). Briefly: Antagonist activity at rat mGluR4 receptor expressed in HEK293 cells by IP-1 HTRF assay. The class given is functional, cell-based.
For test [14], the target named is Metabotropic glutamate receptor 6 (Rattus norvegicus) (UniProt P35349). Briefly: Antagonist activity at rat mGluR6 receptor expressed in HEK293 cells by IP-1 HTRF assay. The class given is functional, cell-based.
The target in test [15] is Metabotropic glutamate receptor 7 (Rattus norvegicus) (UniProt P35400). Briefly: Antagonist activity at rat mGluR7 receptor expressed in HEK293 cells by IP-1 HTRF assay. It is filed as functional, cell-based.
In test [16] the target is Metabotropic glutamate receptor 8 (Rattus norvegicus) (UniProt P70579). Briefly: Antagonist activity at rat mGluR8 receptor expressed in HEK293 cells by IP-1 HTRF assay. It is filed as functional, cell-based.
The species entered for test [17] is Rattus norvegicus. Briefly: Selectivity ratio of EC50 for agonist activity at rat mGluR3 receptor expressed in HEK293 cells to EC50 for agonist activity at rat mGluR2 receptor expressed in HEK293 cells. The class given is cell-based.
The species entered for test [18] is Rattus norvegicus. Briefly: Selectivity ratio of EC50 for agonist activity at rat mGluR1 receptor expressed in HEK293 cells to EC50 for agonist activity at rat mGluR2 receptor expressed in HEK293 cells. The class given is cell-based.
The species named for test [19] is Rattus norvegicus. Briefly: Selectivity ratio of EC50 for agonist activity at rat mGluR5 receptor expressed in HEK293 cells to EC50 for agonist activity at rat mGluR2 receptor expressed in HEK293 cells. It is filed as cell-based.
The species entered for test [20] is Rattus norvegicus. Briefly: Selectivity ratio of EC50 for agonist activity at rat mGluR4 receptor expressed in HEK293 cells to EC50 for agonist activity at rat mGluR2 receptor expressed in HEK293 cells. It is filed as cell-based.
The species named for test [21] is Rattus norvegicus. Briefly: Selectivity ratio of EC50 for agonist activity at rat mGluR6 receptor expressed in HEK293 cells to EC50 for agonist activity at rat mGluR2 receptor expressed in HEK293 cells. It is filed as cell-based.
The species named for test [22] is Rattus norvegicus. Briefly: Selectivity ratio of EC50 for agonist activity at rat mGluR7 receptor expressed in HEK293 cells to EC50 for agonist activity at rat mGluR2 receptor expressed in HEK293 cells. The class given is cell-based.
Test [23] is filed under the species Rattus norvegicus. Briefly: Selectivity ratio of EC50 for agonist activity at rat mGluR8 receptor expressed in HEK293 cells to EC50 for agonist activity at rat mGluR2 receptor expressed in HEK293 cells. It is filed as cell-based.
Test [24] concerns the target Metabotropic glutamate receptor 3 (Rattus norvegicus) (UniProt P31422). Briefly: Agonist activity at rat mGluR3 receptor expressed in HEK293 cells at 3 uM by IP-1 HTRF assay. It is filed as functional, cell-based. Conditions: filed as agonist.
Test [25] addresses Metabotropic glutamate receptor 2 (Homo sapiens, UniProt Q14416). Briefly: Agonist activity at mGluR2 receptor (unknown origin). It is filed as functional.

Sequence of Metabotropic glutamate receptor 3 (Rattus norvegicus) (P31422 23-879 limits assumed): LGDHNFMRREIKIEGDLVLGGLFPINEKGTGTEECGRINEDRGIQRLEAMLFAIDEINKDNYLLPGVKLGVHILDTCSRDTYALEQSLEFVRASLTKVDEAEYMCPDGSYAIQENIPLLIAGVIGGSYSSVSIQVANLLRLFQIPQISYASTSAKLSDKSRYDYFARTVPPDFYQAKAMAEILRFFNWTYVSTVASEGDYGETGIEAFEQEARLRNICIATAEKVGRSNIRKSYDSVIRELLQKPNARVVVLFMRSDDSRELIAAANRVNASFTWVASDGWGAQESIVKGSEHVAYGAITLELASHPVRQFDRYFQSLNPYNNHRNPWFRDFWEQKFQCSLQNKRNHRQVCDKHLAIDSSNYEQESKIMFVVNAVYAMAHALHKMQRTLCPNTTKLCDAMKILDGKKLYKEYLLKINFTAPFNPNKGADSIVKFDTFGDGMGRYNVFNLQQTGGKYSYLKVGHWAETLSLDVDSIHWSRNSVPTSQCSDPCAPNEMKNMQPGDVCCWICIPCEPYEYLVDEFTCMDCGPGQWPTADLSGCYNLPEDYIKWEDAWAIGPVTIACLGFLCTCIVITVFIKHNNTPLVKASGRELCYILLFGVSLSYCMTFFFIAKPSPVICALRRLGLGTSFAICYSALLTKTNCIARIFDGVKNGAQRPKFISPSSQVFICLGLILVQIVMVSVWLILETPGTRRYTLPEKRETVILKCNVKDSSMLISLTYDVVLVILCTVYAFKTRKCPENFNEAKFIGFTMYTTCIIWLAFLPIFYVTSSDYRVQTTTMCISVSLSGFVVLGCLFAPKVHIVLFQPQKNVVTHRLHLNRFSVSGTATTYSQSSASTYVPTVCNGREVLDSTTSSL
Sequence of Metabotropic glutamate receptor 6 (P35349 whole entry): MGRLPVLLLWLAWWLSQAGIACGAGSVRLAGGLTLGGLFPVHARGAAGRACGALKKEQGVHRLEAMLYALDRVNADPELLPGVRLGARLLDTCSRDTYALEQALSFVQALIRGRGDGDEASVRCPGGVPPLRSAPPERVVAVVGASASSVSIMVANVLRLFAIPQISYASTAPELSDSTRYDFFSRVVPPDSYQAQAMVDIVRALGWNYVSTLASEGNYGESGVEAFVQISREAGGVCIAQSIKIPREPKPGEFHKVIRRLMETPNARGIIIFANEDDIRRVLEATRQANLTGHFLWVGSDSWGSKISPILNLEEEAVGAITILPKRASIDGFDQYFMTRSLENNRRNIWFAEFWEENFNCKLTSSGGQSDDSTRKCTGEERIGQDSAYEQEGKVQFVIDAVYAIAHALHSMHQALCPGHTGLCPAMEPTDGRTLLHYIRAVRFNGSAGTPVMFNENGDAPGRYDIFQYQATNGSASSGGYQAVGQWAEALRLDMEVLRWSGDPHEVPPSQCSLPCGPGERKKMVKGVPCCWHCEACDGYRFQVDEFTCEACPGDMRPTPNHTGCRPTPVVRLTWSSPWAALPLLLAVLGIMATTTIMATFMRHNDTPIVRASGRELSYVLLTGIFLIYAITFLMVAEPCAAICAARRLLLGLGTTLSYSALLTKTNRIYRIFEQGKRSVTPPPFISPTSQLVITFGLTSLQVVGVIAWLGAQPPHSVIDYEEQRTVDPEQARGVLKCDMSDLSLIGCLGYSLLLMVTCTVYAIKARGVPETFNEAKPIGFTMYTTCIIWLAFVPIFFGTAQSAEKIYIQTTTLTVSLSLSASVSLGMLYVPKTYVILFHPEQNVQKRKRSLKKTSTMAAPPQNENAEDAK
Sequence of Metabotropic glutamate receptor 4 (Rattus norvegicus) (P31423 whole entry): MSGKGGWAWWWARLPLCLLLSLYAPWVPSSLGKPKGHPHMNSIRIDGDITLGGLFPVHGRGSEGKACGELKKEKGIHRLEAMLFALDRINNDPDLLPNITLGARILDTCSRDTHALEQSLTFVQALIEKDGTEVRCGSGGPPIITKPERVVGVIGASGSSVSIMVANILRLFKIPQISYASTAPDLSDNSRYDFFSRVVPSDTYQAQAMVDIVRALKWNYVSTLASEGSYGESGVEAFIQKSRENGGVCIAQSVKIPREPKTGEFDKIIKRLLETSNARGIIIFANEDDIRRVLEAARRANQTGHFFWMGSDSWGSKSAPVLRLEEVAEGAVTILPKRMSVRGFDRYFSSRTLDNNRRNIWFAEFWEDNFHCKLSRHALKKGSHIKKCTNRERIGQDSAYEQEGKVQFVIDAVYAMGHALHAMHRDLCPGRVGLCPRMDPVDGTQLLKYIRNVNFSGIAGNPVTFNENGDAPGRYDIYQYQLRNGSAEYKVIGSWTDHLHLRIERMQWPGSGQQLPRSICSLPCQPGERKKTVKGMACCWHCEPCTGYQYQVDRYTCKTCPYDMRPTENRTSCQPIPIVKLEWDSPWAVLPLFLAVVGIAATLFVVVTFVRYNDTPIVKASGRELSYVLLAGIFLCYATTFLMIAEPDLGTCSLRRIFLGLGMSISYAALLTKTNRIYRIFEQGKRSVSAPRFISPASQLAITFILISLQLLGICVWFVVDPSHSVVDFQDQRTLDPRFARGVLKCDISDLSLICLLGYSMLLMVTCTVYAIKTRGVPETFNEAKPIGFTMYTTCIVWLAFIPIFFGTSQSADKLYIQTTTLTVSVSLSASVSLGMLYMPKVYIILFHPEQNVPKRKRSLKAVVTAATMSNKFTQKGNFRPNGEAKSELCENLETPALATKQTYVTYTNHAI
Sequence of Metabotropic glutamate receptor 3 (P31422 whole entry): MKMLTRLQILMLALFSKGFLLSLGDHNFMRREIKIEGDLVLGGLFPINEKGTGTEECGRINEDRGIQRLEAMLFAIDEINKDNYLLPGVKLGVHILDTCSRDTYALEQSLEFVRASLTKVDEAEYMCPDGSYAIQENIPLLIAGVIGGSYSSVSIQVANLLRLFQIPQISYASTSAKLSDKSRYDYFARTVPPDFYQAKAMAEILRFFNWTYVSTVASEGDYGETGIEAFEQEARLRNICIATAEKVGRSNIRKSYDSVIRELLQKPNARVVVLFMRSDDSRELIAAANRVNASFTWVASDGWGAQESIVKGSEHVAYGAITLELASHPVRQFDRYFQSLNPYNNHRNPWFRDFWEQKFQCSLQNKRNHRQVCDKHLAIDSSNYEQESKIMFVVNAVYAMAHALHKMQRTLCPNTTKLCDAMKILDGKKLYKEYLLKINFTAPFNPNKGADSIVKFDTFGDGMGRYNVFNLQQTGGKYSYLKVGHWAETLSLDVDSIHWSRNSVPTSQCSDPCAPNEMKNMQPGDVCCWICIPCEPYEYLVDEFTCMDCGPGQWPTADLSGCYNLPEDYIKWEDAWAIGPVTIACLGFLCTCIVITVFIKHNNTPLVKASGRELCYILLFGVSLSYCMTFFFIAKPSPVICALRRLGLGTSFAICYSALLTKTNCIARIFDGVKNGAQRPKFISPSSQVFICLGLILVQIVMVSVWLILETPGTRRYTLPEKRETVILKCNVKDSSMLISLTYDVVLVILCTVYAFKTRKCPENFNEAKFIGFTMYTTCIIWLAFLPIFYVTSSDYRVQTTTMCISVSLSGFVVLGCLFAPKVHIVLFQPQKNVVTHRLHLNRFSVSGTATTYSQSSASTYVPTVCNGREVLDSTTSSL
Sequence of Metabotropic glutamate receptor 5 (P31424 whole entry): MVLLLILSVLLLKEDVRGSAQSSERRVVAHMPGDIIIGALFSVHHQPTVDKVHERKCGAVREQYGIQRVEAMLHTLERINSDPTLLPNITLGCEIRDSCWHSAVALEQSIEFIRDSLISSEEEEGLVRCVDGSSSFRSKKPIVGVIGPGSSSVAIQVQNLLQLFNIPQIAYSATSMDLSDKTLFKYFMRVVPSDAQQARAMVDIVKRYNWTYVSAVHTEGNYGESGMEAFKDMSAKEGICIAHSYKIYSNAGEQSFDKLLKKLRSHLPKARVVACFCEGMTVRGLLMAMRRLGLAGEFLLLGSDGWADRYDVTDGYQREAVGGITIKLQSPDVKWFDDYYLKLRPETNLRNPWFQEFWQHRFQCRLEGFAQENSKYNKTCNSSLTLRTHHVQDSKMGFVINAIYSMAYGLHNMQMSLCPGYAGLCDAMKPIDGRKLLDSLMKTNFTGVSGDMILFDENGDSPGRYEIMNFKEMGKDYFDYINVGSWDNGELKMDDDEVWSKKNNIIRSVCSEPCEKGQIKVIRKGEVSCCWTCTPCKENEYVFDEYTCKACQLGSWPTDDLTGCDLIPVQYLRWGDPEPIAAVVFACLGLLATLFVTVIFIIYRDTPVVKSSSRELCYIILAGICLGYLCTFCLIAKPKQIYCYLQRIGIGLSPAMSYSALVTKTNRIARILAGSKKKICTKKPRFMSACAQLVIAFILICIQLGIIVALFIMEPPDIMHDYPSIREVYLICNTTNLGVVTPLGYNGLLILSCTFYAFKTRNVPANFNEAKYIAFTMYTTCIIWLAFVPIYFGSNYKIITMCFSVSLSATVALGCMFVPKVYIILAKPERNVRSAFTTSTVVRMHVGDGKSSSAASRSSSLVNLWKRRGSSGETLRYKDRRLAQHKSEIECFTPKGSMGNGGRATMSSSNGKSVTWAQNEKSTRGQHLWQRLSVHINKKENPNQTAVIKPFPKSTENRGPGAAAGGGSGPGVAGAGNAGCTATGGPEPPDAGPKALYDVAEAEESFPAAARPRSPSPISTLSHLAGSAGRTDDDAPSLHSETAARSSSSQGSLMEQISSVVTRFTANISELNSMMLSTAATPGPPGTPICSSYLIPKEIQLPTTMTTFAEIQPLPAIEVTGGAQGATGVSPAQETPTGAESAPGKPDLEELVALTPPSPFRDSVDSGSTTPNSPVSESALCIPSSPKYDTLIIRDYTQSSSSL
Sequence of Metabotropic glutamate receptor 6 (Rattus norvegicus) (P35349 whole entry): as the sequence (P35349 whole entry) above

On to `C[C@@]1(C(=O)O)C[C@H]1[C@H](N)C(=O)O`, for which the EC50 in test [1] (read-out: EC50) was 5210 nM; in test [1] (read-out: pEC50 (converted)), 5130 nM; in [2] (read-out: EC50) it was 10600 nM; in test [2] (read-out: pEC50 (converted)), 11200 nM; in test [3] it was 82 nM; in [4] it was 1220 nM. For the same compound, the EC50 was 2180 nM in [6] (read-out: EC50) and 2140 nM in test [6] (read-out: pEC50 (converted)). Besides, the result in test [5], in test [7] and in test [8] was inactive. The inhibition result in [9], in [10], in test [11], in test [12], in [13] and in test [14] was “inactive” each time. Also, the inhibition result in test [15] and in [16] was “inactive” in each case. The Ratio EC50 was 15 in the test filed under Rattus norvegicus [17]; above 60 in the test filed under Rattus norvegicus [18]; above 60 in the test listed under Rattus norvegicus [19]; above 25 in the test listed under Rattus norvegicus [20]; above 25 in the test listed under Rattus norvegicus [21]; above 25 in the test filed under Rattus norvegicus [22]. Moreover, the Ratio EC50 in the test filed under Rattus norvegicus [23] was above 25.

As to `N[C@@]1(C(=O)O)CO[C@H]2[C@H](C(=O)O)[C@H]21` [LY-379268], the EC50 in test [3] came out at 0.6 nM; in test [4] it was 9 nM. The compound further gave an Activity in [24] of 100%.

The compound `N[C@H](C(=O)O)[C@@H]1C[C@H]1C(=O)O` displayed an EC50 in [25] of 300 nM.

Values taken from ChEMBL document CHEMBL5505966, “Synthesis and pharmacological characterization of conformationally restricted 2-amino-Adipic acid analogs and carboxycyclopropyl glycines as selective metabotropic glutamate 2 receptor agonists” (Eur J Med Chem, 2024).
